Read-outs that look alike come from different tables or passages of the source.
Legend:
female mice = system: female mice
Method: According to the skin sensitization test based on the Local Lymph Node Assay (LLNA), the SI value was measured in the following manner.
As positive control material, α-hexylcinnamaldehyde (HCA; product of Wako Pure Chemical Industries, Ltd.) was used.
As a medium, a liquid mixture containing acetone (product of Wako Pure Chemical Industries, Ltd.) and olive oil (product of Fudimi Pharmaceutical Co., Ltd.) in a volume ratio of 4 to 1 was used.
Before the test, female mice were acclimated about the test substances, the positive control, the medium control for 8 days including 6-day quarantine.
Based on the body weights measured two days before the initiation of sensitization, they were categorized into two groups (four mice/group) by the body weight stratified random sampling method so that the body weight of each individual was within ±20 percent of the average body weight of all the individuals. Each of the animals for the test was eight to nine weeks old at the time of the initiation of sensitization. The individuals remaining after the categorization were excluded from the test.
The test substance was weighed in a measuring flask, and the volume of the test substance was adjusted to 1 mL with the medium. The thus-prepared test substance preparation was placed in a light-shielded airtight container (made of glass).
Prepared liquids and media of each of the test substance and positive control substance were applied to both auricles of the animal in an amount of 25 μL of each. A micropipettor was used for application. This treatment was performed once a day for three consecutive days.
About 48 hours after the final sensitization, the BrdU preparation liquid (0.5 mL) was intraperitoneally administered once to each of the animals.
About 24 hours after the administration of BrdU, the tested animals were allowed to undergo euthanasia, and their auricular lymph nodes were sampled. The surrounding tissue of each auricular lymph node was removed, and the auricular lymph nodes from both the auricles were collectively weighed. Also, the average and standard error of the weights of the auricular lymph nodes were calculated for each group. After the measurement of the weights, the auricular lymph nodes of each individual were stored in a frozen state using a biomedical freezer set to −20 degrees C.
After returning the auricular lymph nodes to room temperature, the auricular lymph nodes were mashed with the gradual addition of physiological saline, and suspended therein. The thus-obtained suspension was filtrated and thereafter dispensed into the wells of a 96-well microplate, with 3 wells being used per individual. The thus-dispensed suspensions were measured for intake of BrdU by the ELISA method. The reagents used were those of a commercially available kit (Cell Proliferation ELISA, BrdU colorimetric, Cat. No. 1647229, product of Roche Diagnostics Inc.). A multiplate reader (FLUOSTAR OPTIMA, product of BMG LABTECH Inc.) was used to measure the absorbance of each well (OD: 370 nm to 492 nm, the intake of BrdU), and the average of the absorbance of the 3 wells for each individual was used as the measurement of BrdU for the individual.
As shown in the following formula, the measurement of BrdU intake for each individual was divided by the average of the measurements of BrdU intake in the vehicle control group to calculate the SI value for the individual. The SI value of each test group was the average of the SI values of the individuals. […] SI=(Average (average of 3 well) of BrdU measuring value of individual)/(Average (average of four animals) of BrdU measuring value of medium control group) Relation 1

[1] = format: cell-based; conditions: OECD test guideline TG471 (±S9mix)
[2] = Oral toxicity according to OECD Test Guideline TG423; format: in vivo
[3] = in vivo
[4] = LLNA, BrdU intake by ELISA, mice, test substance 50.0 w/v percent in acetone/olive oil 4:1, 25 μL per auricle once per day × 3 days

Compound: Isobornyl acrylate [Example A2-2, reference compound]
- SI (stimulation index) (female mice; [4]): Isobornyl acrylate, SI = 8.30, manufactured by Osaka Organic Chemical Company

Compound: C=C(C)C(=O)OCC(CC)(COC(=O)C(=C)C)COC(=O)C(=C)C [Example B1-3, trimethylol propane trimethacrylate]
- SI (stimulation index) (female mice; [4]): TMPT, SI = 1.03, manufactured by Shin Nakamura Chemical Co., Ltd.

Compound: C=C(C)C(=O)OCCOCCOC(=O)C(=C)C [Example B1-1, diethylene glycol dimethacrylate]
- SI (stimulation index) (female mice; female, mouse, in vivo, 3 days): 2G, SI = 1.05, manufactured by Shin-Nakamura Chemical Co.,Ltd.

Compound: C=CC(=O)N(C)CC(=O)OC [Example A1-1, N-acryloyl-N-methyl glycine methyl ester]
- SI (stimulation index) (female mice; [4]): (See Synthesis Example 1) SI = 1.00
- SI value (skin sensitivity) (female mice; OECD Test Guideline TG442B): 1.00
- AMES test [1]: negative
- Oral toxicity, cases died [2]: 0 out of 6
- LD50 ([2]; in vivo, 2000 mg/kg): ≥ 2000 mg/kg
- PII (skin irritation) [3]: 0.5

Compound: C=C(C)C(=O)OCC(COC(=O)C(=C)C)OC(C)=O [Example B1-6, 2-acetyl-1,3-glycerol dimethacrylate]
- SI (stimulation index) (female mice; female, mouse, in vivo, 3 days): (See Synthesis Example 8) SI = 1.40

Compound: C=CC(=O)OCC(CC)(COC(=O)C=C)COC(=O)C=C [Example B2-1, reference compound]
- SI (stimulation index) (female mice; [4]): M-3547, SI = 3.42, manufactured by TOAGOSEI CO., LTD.

Compound: C=CC(=O)N(C)[C@@H](C)C(=O)OC(C)C [Example A1-6, N-acryloyl-N-methyl alanine isopropyl ester]
- SI (stimulation index) (female mice; female, mouse, in vivo, 3 days): (See Synthesis Example 6) SI = 1.21

Compound: C=CC(=O)N1CCC(C(=O)OCC)CC1 [Example A1-7, N-acryloyl-piperidine-4-ethyl carboxylate]
- SI (stimulation index) (female mice; female, mouse, in vivo, 3 days): (See Synthesis Example 7) SI = 1.70

Compound: C=C(C)C(=O)OCCO [Example A2-1, 2-hydroxyethyl methacrylate, reference compound]
- SI (stimulation index) (female mice; [4]): 2-hydroxyethyl methacrylate, SI = 1.26, Manufactured by Tokyo Chemical Industry Co. Ltd..

Compound: C=CC(=O)N(CC(=O)OC)C(C)C [Example A1-3, N-acryloyl-N-isopropyl glycine methyl ester]
- SI (stimulation index) (female mice; female, mouse, in vivo, 3 days): (See Synthesis Example 3) SI = 1.05

Compound: C=CC(=O)N(C)[C@@H](C)C(=O)OC [Example A1-4, N-acryloyl-N-methyl alanine methyl ester]
- SI (stimulation index) (female mice; female, mouse, in vivo, 3 days): (See Synthesis Example 4) SI = 1.12

Source: patent publication US11479622B2, “Active energy ray curable composition, active energy ray curable ink, composition accommodating container, two or three dimensional image forming apparatus, two or three dimensional image forming method, cured matter, decorative matter, artificial nail composition, nail decorative material, and …” (priority 2019, dated 2022)
